Experimental data reported in the NIST ThermoML archive (doi:10.1016/j.jct.2015.05.005).
± gives the expanded uncertainty stated by the source.

Conditions: Liquid mixture 1, Pendant drop shape

O=C=O [carbon dioxide] + O
Conditions | interfacial tension [mN/m]
298.4 K, 6830 kPa | 31 ± 0.49
298.5 K, 7200 kPa | 30.99 ± 0.4
298.5 K, 8100 kPa | 31.09 ± 0.33
298.6 K, 6490 kPa | 30.79 ± 1.9
298.6 K, 8970 kPa | 30.98 ± 0.34
298.6 K, 10630 kPa | 30.73 ± 0.34
298.6 K, 13180 kPa | 30.62 ± 0.37
298.6 K, 15150 kPa | 30.81 ± 0.42
298.6 K, 20830 kPa | 29.84 ± 0.49
